Assay: refractive index (Na D-line) (dimensionless); xn = mol fraction of the nth substance listed
Details: 101 kPa, Liquid, Standard Abbe refractometry

CCCCCCCC/C=C\CCCCCCCC(=O)OCC [ethyl (Z)-9-octadeceneoate] + CCCO
refractive index
Details | x2 = 0 | x2 = 0.1 | x2 = 0.2 | x2 = 0.3 | x2 = 0.4 | x2 = 0.5 | x2 = 0.6 | x2 = 0.7 | x2 = 0.8 | x2 = 0.9
293.15 K | 1.4494 | 1.4484 | 1.4468 | 1.4448 | 1.4422 | 1.4388 | 1.4346 | 1.4287 | 1.4205 | 1.408
298.15 K | 1.4474 | 1.4464 | 1.4448 | 1.4427 | 1.4401 | 1.4367 | 1.4325 | 1.4267 | 1.4184 | 1.4058
303.15 K | 1.4454 | 1.4444 | 1.4427 | 1.4406 | 1.4381 | 1.4347 | 1.4305 | 1.4246 | 1.4163 | 1.4037
308.15 K | 1.4433 | 1.4423 | 1.4407 | 1.4386 | 1.436 | 1.4326 | 1.4284 | 1.4225 | 1.4142 | 1.4016
313.15 K | 1.4414 | 1.4403 | 1.4386 | 1.4365 | 1.4339 | 1.4305 | 1.4262 | 1.4204 | 1.4121 | 1.3994
318.15 K | 1.4395 | 1.4382 | 1.4366 | 1.4344 | 1.4318 | 1.4284 | 1.4241 | 1.4183 | 1.4099 | 1.3973
323.15 K | 1.4375 | 1.4362 | 1.4345 | 1.4323 | 1.4297 | 1.4263 | 1.422 | 1.4161 | 1.4078 | 1.3952
328.15 K | 1.4355 | 1.4341 | 1.4325 | 1.4303 | 1.4276 | 1.4242 | 1.4199 | 1.4139 | 1.4057 | 1.393
333.15 K | 1.4335 | 1.4321 | 1.4304 | 1.4282 | 1.4255 | 1.422 | 1.4178 | 1.4118 | 1.4035 | 1.3907
338.15 K | 1.4315 | 1.4301 | 1.4284 | 1.4261 | 1.4234 | 1.4199 | 1.4156 | 1.4096 | 1.4013 | 1.3884
343.15 K | 1.4296 | 1.4281 | 1.4264 | 1.4241 | 1.4213 | 1.4178 | 1.4134 | 1.4074 | 1.3991 | 1.3861

CCCCCCCCCCCCCCCC [hexadecane] + CCCCO
refractive index
Details | x2 = 0 | x2 = 0.1 | x2 = 0.2 | x2 = 0.3 | x2 = 0.4 | x2 = 0.5 | x2 = 0.6 | x2 = 0.7 | x2 = 0.8 | x2 = 0.9
293.15 K | 1.434 | 1.4329 | 1.4315 | 1.4295 | 1.4274 | 1.425 | 1.422 | 1.4184 | 1.4139 | 1.4078
298.15 K | 1.4318 | 1.4307 | 1.4293 | 1.4274 | 1.4252 | 1.4228 | 1.4199 | 1.4162 | 1.4118 | 1.4057
303.15 K | 1.4296 | 1.4286 | 1.4271 | 1.4252 | 1.4231 | 1.4206 | 1.4177 | 1.4141 | 1.4096 | 1.4036
308.15 K | 1.4275 | 1.4264 | 1.425 | 1.423 | 1.4209 | 1.4185 | 1.4155 | 1.4119 | 1.4075 | 1.4015
313.15 K | 1.4254 | 1.4242 | 1.4228 | 1.4208 | 1.4187 | 1.4163 | 1.4134 | 1.4097 | 1.4053 | 1.3994
318.15 K | 1.4233 | 1.4221 | 1.4206 | 1.4186 | 1.4165 | 1.4141 | 1.4111 | 1.4075 | 1.4031 | 1.3973
323.15 K | 1.4211 | 1.4199 | 1.4184 | 1.4164 | 1.4143 | 1.4119 | 1.4089 | 1.4053 | 1.4009 | 1.3951
328.15 K | 1.419 | 1.4177 | 1.4162 | 1.4142 | 1.4121 | 1.4097 | 1.4067 | 1.4031 | 1.3987 | 1.3929
333.15 K | 1.4169 | 1.4156 | 1.4141 | 1.4121 | 1.4099 | 1.4074 | 1.4045 | 1.4009 | 1.3965 | 1.3907
338.15 K | 1.4149 | 1.4135 | 1.4119 | 1.4099 | 1.4077 | 1.4052 | 1.4022 | 1.3987 | 1.3942 | 1.3885
343.15 K | 1.4129 | 1.4114 | 1.4097 | 1.4076 | 1.4056 | 1.403 | 1.4 | 1.3964 | 1.392 | 1.3862

CCCCCCCCCCCCCCCC [hexadecane] + CCCO
refractive index
Details | x2 = 0 | x2 = 0.1 | x2 = 0.2 | x2 = 0.3 | x2 = 0.4 | x2 = 0.5 | x2 = 0.6 | x2 = 0.7 | x2 = 0.8 | x2 = 0.9
293.15 K | 1.434 | 1.4327 | 1.431 | 1.4288 | 1.4266 | 1.4233 | 1.4196 | 1.4148 | 1.4084 | 1.3993
298.15 K | 1.4318 | 1.4305 | 1.4288 | 1.4266 | 1.4244 | 1.4211 | 1.4174 | 1.4127 | 1.4062 | 1.3972
303.15 K | 1.4296 | 1.4284 | 1.4266 | 1.4244 | 1.4222 | 1.4189 | 1.4152 | 1.4105 | 1.4041 | 1.3951
308.15 K | 1.4275 | 1.4262 | 1.4245 | 1.4223 | 1.42 | 1.4167 | 1.4131 | 1.4083 | 1.4019 | 1.3929
313.15 K | 1.4254 | 1.4241 | 1.4223 | 1.4201 | 1.4179 | 1.4145 | 1.4109 | 1.4061 | 1.3998 | 1.3908
318.15 K | 1.4233 | 1.4219 | 1.4201 | 1.4179 | 1.4156 | 1.4123 | 1.4087 | 1.4038 | 1.3976 | 1.3885
323.15 K | 1.4211 | 1.4197 | 1.4179 | 1.4157 | 1.4134 | 1.41 | 1.4064 | 1.4016 | 1.3952 | 1.3863
328.15 K | 1.419 | 1.4176 | 1.4157 | 1.4135 | 1.4112 | 1.4077 | 1.4041 | 1.3993 | 1.393 | 1.3841
333.15 K | 1.4169 | 1.4154 | 1.4135 | 1.4113 | 1.4089 | 1.4054 | 1.4018 | 1.397 | 1.3907 | 1.3818
338.15 K | 1.4149 | 1.4133 | 1.4113 | 1.4091 | 1.4067 | 1.4032 | 1.3995 | 1.3947 | 1.3884 | 1.3795
343.15 K | 1.4129 | 1.4111 | 1.4092 | 1.4069 | 1.4044 | 1.401 | 1.3972 | 1.3924 | 1.386 | 1.3771

Reference: the NIST ThermoML archive (doi:10.1016/j.fluid.2018.05.028)
